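1) Cells in 96-well plates. 2) Compound, 48 h, 5 concentrations. 3) Linear interpolation between surrounding doses. 4) Unreached endpoint = highest concentration. GI50 marks 50% less growth.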 Active and inactive are the calls of the source. Cut-off read from the data, not from the text of the source: active = GI50 up to about 1.1 µM and inactive = higher. Some results are limits rather than exact numbers.

Test systems include HCT-15; CCRF-CEM; UACC-62; SN12C; SF-268; HL-60; SW-620; UACC-257; SF-295; RPMI-8226; Hs-578T; SNB-75; A498; OVCAR-8; 786-0; NCI-H23; NCI-H522; U-251; T47D.
Experiment in all cases: DTP human tumour cell line panel, 48 h

For the compound `O=[N+]([O-])C(/C=C(\Cl)[N+](=O)[O-])=C(Nc1ccccc1)Nc1ccccc1`, the GI50 was 8.26 µM in the test with HCT-15; 1.44 µM (inactive) in the test with CCRF-CEM; 7.45 µM (inactive) with UACC-62; 15.5 µM (inactive) in the test on SN12C; 14.3 µM (inactive) in the test on SF-268; 2.59 µM (inactive) in the test on HL-60. The GI50 in the test on SW-620 is 2.79 µM (inactive); in the test on UACC-257 it was 13.9 µM (inactive); with SF-295, 17.3 µM (inactive); in the test with RPMI-8226, 2.28 µM (inactive); with Hs-578T it was 8.59 µM (inactive); in the test with SNB-75, 1.26 µM (inactive). Besides, the GI50 with A498 was 17.9 µM (inactive); with OVCAR-8, 8.41 µM (inactive); with 786-0, 3.7 µM (inactive); with NCI-H23 it was 7.96 µM (inactive); with NCI-H522, 2.21 µM (inactive); with U-251 it was 14.3 µM (inactive). In addition, the GI50 with T47D is 7.43 µM (inactive).
As for `CCOC(=O)C(NC(=O)CC(C)C)(N1CCN(c2cc3c(cc2F)c(=O)c(C(=O)O)cn3C2CC2)CC1)C(F)(F)F` (stereo not given), the GI50 in the test with HCT-15 is 10 µM; in the test on CCRF-CEM, 3.32 µM (inactive); with UACC-62, 15.2 µM (inactive); with SN12C it was 27.5 µM (inactive); in the test on SF-268, 11.1 µM (inactive); in the test with HL-60 it was 5.75 µM (inactive). Further, the GI50 in the test with SW-620 is 19.6 µM (inactive); in the test with UACC-257 it was 16.7 µM (inactive); in the test with SF-295, 21.3 µM (inactive); in the test with RPMI-8226 it was 20.9 µM (inactive); in the test with Hs-578T, 21.8 µM (inactive); in the test with SNB-75, 21.4 µM (inactive). Besides, the GI50 in the test on A498 was 1.73 µM (inactive); with OVCAR-8, 21.1 µM (inactive); with 786-0, 29.5 µM (inactive); in the test with NCI-H23 it was 7.46 µM (inactive); in the test with NCI-H522 it was 2.73 µM (inactive); in the test on U-251 it was 14.7 µM (inactive). For the same compound, the GI50 with T47D is 22.9 µM (inactive).
Regarding `N#Cc1[nH]c(=O)n(-c2ccc([N+](=O)[O-])cc2)c1N`, the GI50 in the test with HCT-15 was over 10 µM; in the test on CCRF-CEM, > 10 µM (inactive); with UACC-62 it was > 10 µM (inactive); with SN12C it was > 10 µM (inactive); in the test with SF-268 it was > 10 µM (inactive); with HL-60, > 10 µM (inactive). The GI50 in the test with SW-620, with UACC-257, with SF-295, in the test on RPMI-8226, in the test with Hs-578T and with SNB-75 was > 10 µM (inactive) in each case. Moreover, the GI50 with A498, in the test with OVCAR-8, in the test on 786-0, with NCI-H23, in the test with NCI-H522 and in the test on U-251 was > 10 µM (inactive) in each case. For the same compound, in the test with T47D, the GI50 is > 10 µM (inactive).
As to `O=C(NNC(=O)c1ccncc1)C(=O)Nc1cc(Cl)c(Cl)cc1Cl`, the GI50 in the test with HCT-15 was over 100 µM; in the test with CCRF-CEM it was > 10 µM (inactive); in the test on UACC-62, > 100 µM (inactive); in the test on SN12C, > 100 µM (inactive); with SF-268, > 100 µM (inactive); with HL-60, > 100 µM (inactive). Also, the GI50 in the test with SW-620, in the test on UACC-257, with SF-295, in the test on RPMI-8226, in the test with Hs-578T and in the test on SNB-75 was > 100 µM (inactive) in each case. The GI50 in the test with A498, with OVCAR-8, with 786-0, in the test on NCI-H23, in the test with NCI-H522 and in the test on U-251 was > 100 µM (inactive) in each case. Also, the GI50 in the test with T47D was > 100 µM (inactive).
Regarding `O=C1O/C(=C(\Br)c2ccc([N+](=O)[O-])cc2)c2ccccc21`, the GI50 in the test with HCT-15 was over 50.9 µM; in the test with CCRF-CEM, 21.4 µM (inactive); in the test on UACC-62 it was 58.5 µM (inactive); with SN12C it was > 100 µM (inactive); in the test on SF-268, > 74 µM (inactive); in the test with HL-60 it was 36.1 µM (inactive). The GI50 in the test with SW-620 was > 64.3 µM (inactive); with UACC-257, > 74.8 µM (inactive); in the test with SF-295, > 100 µM (inactive); in the test with RPMI-8226 it was 38.7 µM (inactive); with Hs-578T, 74.8 µM (inactive); in the test on SNB-75, > 78.3 µM (inactive). For the same compound, the GI50 is > 100 µM (inactive) with A498; > 76.6 µM (inactive) in the test with OVCAR-8; > 54.6 µM (inactive) with 786-0; > 100 µM (inactive) with NCI-H23; 38.5 µM (inactive) with NCI-H522; 73.3 µM (inactive) in the test on U-251. Further, the GI50 in the test on T47D is 86.5 µM (inactive).
On to `O=C1CC(c2ccc([N+](=O)[O-])cc2)C2(C(=O)NC(=S)NC2=O)C(c2ccc([N+](=O)[O-])cc2)C1` (stereo not given), for which the 50% growth inhibitory concentration (GI50) is 18.9 µM in the test on HCT-15; 27.7 µM (inactive) in the test with CCRF-CEM; 14.8 µM (inactive) in the test with UACC-62; 21.5 µM (inactive) with SN12C; 21.4 µM (inactive) in the test on SF-268; 51.6 µM (inactive) in the test on HL-60. Further, the GI50 in the test on SW-620 is 29.7 µM (inactive); in the test on UACC-257 it was 18.1 µM (inactive); in the test on SF-295, 25.5 µM (inactive); in the test with RPMI-8226, 42.9 µM (inactive); with Hs-578T it was 25.8 µM (inactive); with SNB-75, > 100 µM (inactive). Further, the GI50 in the test with A498 was 32.4 µM (inactive); with OVCAR-8 it was 19.3 µM (inactive); in the test on 786-0 it was 27.7 µM (inactive); with NCI-H23 it was 22.1 µM (inactive); with NCI-H522, 18.9 µM (inactive); in the test with U-251 it was 18.7 µM (inactive). For the same compound, the GI50 with T47D was 51.3 µM (inactive).
As for `CNC(=O)c1nn[nH]c1O`, the GI50 in the test with HCT-15 is over 100 µM; with CCRF-CEM, > 100 µM (inactive); in the test with UACC-62 it was > 100 µM (inactive); in the test on SN12C it was > 100 µM (inactive); in the test on SF-268, > 100 µM (inactive); in the test on HL-60, > 100 µM (inactive). Further, the GI50 in the test on SW-620 was > 100 µM (inactive); in the test with UACC-257 it was > 100 µM (inactive); in the test with SF-295, > 100 µM (inactive); in the test with RPMI-8226, > 100 µM (inactive); with Hs-578T, 98.4 µM (inactive); in the test with SNB-75, 74.1 µM (inactive). The GI50 in the test on A498, in the test on OVCAR-8, in the test with 786-0, in the test with NCI-H23, in the test with NCI-H522 and with U-251 was > 100 µM (inactive) in each case. For the same compound, in the test on T47D, the GI50 is > 100 µM (inactive).
As to `CC1CCC2C(C(=O)O[C@H]3C4C=CO[C@@H](OC5OC(CO)C(O)C(O)C5O)C4[C@@]4(CO)O[C@@H]34)=CO[C@@H](OC3OC(CO)C(O)C(O)C3O)C12` (stereo not given in full), the GI50 is over 10 µM in the test on HCT-15; > 10 µM (inactive) with CCRF-CEM; > 10 µM (inactive) with UACC-62; > 10 µM (inactive) with SN12C; > 10 µM (inactive) with SF-268; > 10 µM (inactive) in the test with HL-60. Besides, the GI50 in the test with SW-620, with UACC-257, with SF-295, in the test on RPMI-8226, in the test on Hs-578T and with SNB-75 was > 10 µM (inactive) each time. Also, the GI50 in the test on A498, in the test with OVCAR-8, in the test on 786-0, with NCI-H23, in the test on NCI-H522 and in the test with U-251 was > 10 µM (inactive) in each case. Also, the GI50 with T47D was > 10 µM (inactive).
With `CCc1nc(N)nc(N)c1-c1ccc(N2CCOCC2)c(N=[N+]=[N-])c1`, the GI50 is 20.3 µM in the test with HCT-15; 53.8 µM (inactive) in the test on CCRF-CEM; 47 µM (inactive) in the test on UACC-62; > 80.5 µM (inactive) with SN12C; 44.7 µM (inactive) in the test on SF-268; > 28.2 µM (inactive) in the test on HL-60. Further, the GI50 with SW-620 is 41.9 µM (inactive); in the test on UACC-257, > 100 µM (inactive); with SF-295, 63 µM (inactive); in the test on RPMI-8226 it was > 89.5 µM (inactive); with Hs-578T, > 100 µM (inactive); in the test with SNB-75, > 92 µM (inactive). Moreover, the GI50 is > 92 µM (inactive) with A498; 61.7 µM (inactive) with OVCAR-8; 57.3 µM (inactive) with 786-0; 37.2 µM (inactive) with NCI-H23; 20.9 µM (inactive) in the test on NCI-H522; 67 µM (inactive) in the test with U-251. In addition, in the test on T47D, the GI50 is > 92.7 µM (inactive).
Consider `CC1(C)C(=O)N=C(N)N1C(=O)OCc1ccccc1`, for which the GI50 in the test with HCT-15 was over 100 µM; in the test with CCRF-CEM it was > 100 µM (inactive); in the test with UACC-62, > 100 µM (inactive); in the test on SN12C it was > 100 µM (inactive); in the test with SF-268 it was > 100 µM (inactive); in the test on HL-60, > 100 µM (inactive). Also, the GI50 in the test on SW-620, in the test with UACC-257, in the test on SF-295, in the test on RPMI-8226, in the test on Hs-578T and in the test on SNB-75 was > 100 µM (inactive) throughout. Moreover, the GI50 in the test on A498, in the test with OVCAR-8, in the test on 786-0, in the test with NCI-H23, in the test on NCI-H522 and in the test with U-251 was > 100 µM (inactive) in each case. Besides, in the test with T47D, the GI50 was > 100 µM (inactive).

Values taken from ChEMBL document CHEMBL1201862, “PubChem BioAssay data set” (2004).
